Target: T1, CETP (from rabbit serum) (Oryctolagus cuniculus, UniProt P22687)
T1 construct: native CETP in whole rabbit serum, not purified; BioVision fluorescent CE transfer kit (introduction describes human CETP, 476 residues, PDB 2OBD, not the assayed protein)
T1 sequence (P22687 2-497): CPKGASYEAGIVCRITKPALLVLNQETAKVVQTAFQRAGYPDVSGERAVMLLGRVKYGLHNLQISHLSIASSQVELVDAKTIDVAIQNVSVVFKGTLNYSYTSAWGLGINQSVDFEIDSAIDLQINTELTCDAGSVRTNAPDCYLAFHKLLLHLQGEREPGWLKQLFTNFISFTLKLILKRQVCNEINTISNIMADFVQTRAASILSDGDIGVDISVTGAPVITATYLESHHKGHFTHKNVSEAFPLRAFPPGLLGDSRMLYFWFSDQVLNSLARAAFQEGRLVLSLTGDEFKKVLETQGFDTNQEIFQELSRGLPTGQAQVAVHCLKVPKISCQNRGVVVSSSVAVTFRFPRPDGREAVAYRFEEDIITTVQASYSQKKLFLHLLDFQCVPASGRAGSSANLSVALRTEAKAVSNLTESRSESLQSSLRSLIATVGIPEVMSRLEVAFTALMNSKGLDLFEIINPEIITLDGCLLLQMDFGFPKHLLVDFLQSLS
Experiment: fluorescent neutral lipid (CE) transfer assay, BioVision kit
Format: biochemical
Conditions: read-out: In vitro % inhibition of CETP at 10 μM
Excerpt: fluorescent neutral lipid (CE) transfer assay, BioVision kit on CETP (from rabbit serum)

SMILES	inhibition at 10 µM [%]
COc1cccc(CNc2ccc(C(=O)c3ccc(C)cc3)cc2)c1 [compound 19, [4-(3-Methoxybenzylamino)phenyl]-p-tolyl-methanone]	16.4 ± 3
Cc1ccc(C(=O)c2ccc(NCc3cccc(C(F)(F)F)c3)cc2)cc1 [compound 21, p-Tolyl-[4-(3-trifluoromethylbenzylamino)phenyl]-methanone]	16.7 ± 0.6
Cc1ccc(C(=O)c2ccc(NCc3ccc(C(F)(F)F)cc3)cc2)cc1 [compound 22, p-Tolyl-[4-(4-trifluoromethylbenzylamino)phenyl]-methanone]	12.6 ± 2.6
COc1ccc(C(=O)c2ccc(NCc3cccc(C(F)(F)F)c3)cc2)c(OC)c1 [compound 29, (2,4-Dimethoxyphenyl)-[4-(3-trifluoromethylbenzylamino)phenyl]-methanone]	19.5 ± 0.6
COc1ccc(C(=O)c2ccc(NCc3ccc(C(F)(F)F)cc3)cc2)c(OC)c1 [compound 30, (2,4-Dimethoxyphenyl)-[4-(4-trifluoromethylbenzylamino)phenyl]-methanone]	19.8 ± 2.9

— publication PMC6257782, “Design, Synthesis, and Biological Evaluation of Benzylamino-Methanone Based Cholesteryl Ester Transfer Protein Inhibitors” (Molecules, 2010)
